Measurements: patent US10106523B2, “Amide compound” (ASTELLAS PHARMA INC., priority 2014, dated 2018)

Assays:
[1] = test system: db/db mice with type 2 diabetes; assay: Effect on albumin in urine of db/db mice with type 2 diabetes; assay type: in vivo, mouse; settings: 0.3 mg/kg po once per day for one week
Method: Test Example 7: Test for Investigation of Effect on Albumin in Urine of db/db Mice with Type 2 Diabetes
db/db Mice (male, 8-week old) with type 2 diabetes were used for the test. The albumin concentrations in urine samples obtained by urine collection for 24 hours were measured by an ELISA method using an anti-mouse albumin antibody (RAM/Alb/7S, Nordic Immunology), and the creatinine concentration in urine was measured using CRE-EN Kainos (Kainos Co., Ltd.). The albumin-creatinine ratio (ACR) in urine was calculated, and a group (n=12) not treated with the test compound and a group (n=12) treated with the test compound were allocated without a bias in ACR. The test compound suspended in a 0.5% methyl cellulose (MC) solution was orally administered to the group treated with the test compound at a dose of 0.3 mg/kg once per day for one week (10 mL/kg). […] Urine was collected for 24 hours from the completion of the final administration, and using the calculated ACR as an indicator, the improvement effect of the test compound on the early nephropathy of the mice with type 2 diabetes was investigated. The inhibitory rate of ACR of the group treated with the test compound by taking the ACR value of the group not treated with the test compound as 100% was determined.

[2] = test system: 5/6 nephrectomy rats with chronic renal failure; assay: Effect on renal function of 5/6 nephrectomy (5/6 Nx) rats with chronic renal failure; assay type: in vivo, rat; settings: 5/6 Nx Wistar rats, 0.2 mg/kg po once per day for 6 weeks
Method: Test Example 8: Test for Investigation of Effect on Renal Function of 5/6 Nephrectomy (5/6 Nx) of Rats with Chronic Renal Failure
Wistar rats (male, 8-Week-old) were used for the test. Two-thirds of the left kidney was removed under pentobarbital anesthesia, and after 1 week, the entire right kidney was nephrectomized (5/6 Nx). After 2 weeks from 5/6 Nx, the protein concentrations in urine samples obtained by urine collection for 24 hours were measured using a Bio-Rad Protein assay kit, and the creatinine concentration in urine was measured using Determiner L CRE (Kyowa Medex Co., Ltd.)). The urinary protein-creatinine ratio (UPCR) was calculated, and a group (n=12) not treated with the test compound and a group (n=12) treated with the test compound were allocated without a bias in UPCR. The test compound suspended in a 0.5% MC solution was orally administered to the group treated with the test compound at a dose of 0.2 mg/kg once per day for 6 weeks (5 mL/kg). […] Urine was collected for 24 hours from the completion of the final administration, and using the calculated UPCR as an indicator, the improvement effect of the test compound on the nephropathy of the rat with chronic renal failure was investigated. The inhibitory rate of UPCR of the group treated with the test compound when the UPCR value of the group not treated with the test compound was taken as 100% was determined.

[3] = target: rat EP4 receptor (Rattus norvegicus, UniProt P43114); assay: Rat EP4 receptor antagonistic action by measurement of cAMP amount in CHO-K1 cells; assay type: cell-based; design: expressed in transfected cells; settings: PGE2 100 nmol/L, CHO-K1 cells stably expressing rat EP4, average of two experiments; read-out: IC50 value with respect to the cAMP production action by PGE2 in rat EP4 receptor expressing CHO-K1 cells
Sequence of rat EP4 receptor (P43114 whole entry): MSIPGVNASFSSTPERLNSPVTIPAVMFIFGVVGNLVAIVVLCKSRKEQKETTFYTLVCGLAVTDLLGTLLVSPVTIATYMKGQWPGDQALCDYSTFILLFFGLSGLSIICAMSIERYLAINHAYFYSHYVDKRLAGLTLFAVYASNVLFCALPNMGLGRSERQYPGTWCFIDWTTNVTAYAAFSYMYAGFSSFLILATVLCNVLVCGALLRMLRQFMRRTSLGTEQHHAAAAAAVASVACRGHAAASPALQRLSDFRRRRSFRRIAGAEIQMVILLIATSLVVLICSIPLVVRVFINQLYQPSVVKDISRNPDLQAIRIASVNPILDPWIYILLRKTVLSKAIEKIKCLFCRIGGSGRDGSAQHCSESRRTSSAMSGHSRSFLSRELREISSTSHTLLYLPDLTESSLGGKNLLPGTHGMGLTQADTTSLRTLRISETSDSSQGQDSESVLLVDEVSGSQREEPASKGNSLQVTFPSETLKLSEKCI
Method: Test Example 4: Evaluation Test of Rat EP4 Receptor Antagonistic Action by Measurement of cAMP Amount
Construction of Vector Expressing Rat EP4 Receptor:
The construction was carried out in the same manner as in Test Example 1.
Construction of Cells Stably Expressing Rat EP4 Receptor:
The expression vector of a rat EP4 receptor was transfected into a CHO—K1 cell (ATCC No.: CCL-61). The transfection was carried out according to an appended instruction, using Lipofectoamine (registered trademark) 2000 reagent (Invitrogen Inc.). After the transfection, the cells were cultured in an α-MEM culture medium (product No. 12571063, Invitrogen Inc.) containing G418 (Nakalai Tesque Inc.) to acquire a drug-resistant clone.
Cell Culture and Treatment with Compound:
CHO—K1 cells stably expressing a rat EP4 were seeded in 96-well plates at 0.5×10^4 cells/100 μL and cultured overnight. […]
The cAMP amount in the cell lysate was measured using a cAMP HiRange kit. […] After incubation, the fluorescence intensity of the cryptate at 620 nm and the fluorescence intensity of the d2 at 665 nm were measured using ARVO1420. The cAMPs of 280, 70, 17.5, 4.38, 1.09, 0.27, and 0.068 nmol/L were added to each well to create a standard curve and the fluorescence intensity was measured as described above. […] An average value was calculated from two experiment results.

## Cc1nn(Cc2cc3ccccc3cn2)c(C(=O)N[C@@H](C)c2ccc(C(=O)O)cc2)c1Br [Compound A, 4-[(1S)-1-({[4-bromo-1-(isoquinolin-3-ylmethyl)-3-methyl-1H-pyrazol-5-yl]carbonyl}amino)ethyl]benzoic acid]
[1]
  Inhibitory rate of ACR (albumin-creatinine ratio in urine): 44%
[2]
  Inhibitory rate of UPCR (urinary protein-creatinine ratio): 47%
[3]
  IC50: 1.04 nM
